# Results: PubChem BioAssay AID1996
# Conditions: buffer; pH 7.4; 200.0 µM
row,SMILES,solubility kinetic [µg/mL]
1,CCOc1ccc(CCNC(=O)COC(=O)c2ccncc2)cc1OCC,> 55.9
2,COC(=O)c1ccc2nc(-c3ccc(S(C)(=O)=O)cc3)cn2c1,2
3,Cc1ccccc1C(=O)Nc1cccc(NC(=O)c2cccnc2)c1,45.8
4,O=C(CNc1cccc(Cl)c1)c1ccc(Br)cc1,< 0.7
5,Cc1ccc(NC(=O)c2ccc(Cl)cc2Cl)cc1O,12
6,COc1cc(Br)c(Br)c(Br)c1N,0.9
7,Cc1ccnc(NC(=O)c2cnc(Cl)c(Cl)c2)c1,6.4
8,O=C(O)c1ccc(S(=O)(=O)c2ccc([N+](=O)[O-])cc2[N+](=O)[O-])cc1,> 52.8
9,CC(=O)Oc1ccc(/C=C/c2nc3ccccc3c(=O)o2)cc1,< 0.7
10,Cc1cccc(-c2nc(C#N)c(N3CCC(C)CC3)o2)c1,< 0.2
11,COC(=O)C(C)NC(=O)C12CC3CC(C1)CC(c1ccc(C)cc1)(C3)C2 (stereo not given),30.6
12,Cc1cc(C(=O)NC2CCC(O)CC2)c(C)o1 (stereo not given),> 35.6
13,Cc1ccc(CNC(=O)c2cc(=O)c3ccc(C)cc3o2)cc1,2.6
14,CCOC(=O)c1cc(C#N)c(SCC(=O)O)[nH]c1=O,38.8
15,Cn1nc(C(F)(F)F)c(-c2ccccc2)c1NC(=O)CCC(=O)O,> 51.2
16,OCc1cccc[n+]1CCc1ccccc1.[Br-],> 44.1
17,CCc1ccccc1NC(=S)N1CCN(c2cccc(OC)c2)CC1,2.2
18,COc1ccccc1NC(=O)/C(=C/c1ccncc1)NC(=O)c1ccccc1,22.2
19,O=C(CC12CC3CC(CC(C3)C1)C2)NCc1ccccc1,0.6
20,Cc1ccccc1C(N)c1ccncc1.Cl (stereo not given),> 40.7
21,CCOC(=O)c1c(/N=C/c2ccc(OC)cc2O)sc2c1CCN(C)C2,37
22,Cc1ccccc1/C=C/c1cc[n+](C)cc1.[I-],> 50.6
23,N#Cc1ccccc1OCC(=O)OCC(=O)NC1CCS(=O)(=O)C1 (stereo not given),> 52.9
24,CCOC(=O)N1c2ccccc2C=CC1OCC (stereo not given),8

row,SMILES,solubility kinetic [µg/mL]
1,CC(=O)c1c(C)[nH]c(C(=O)NNC(=O)c2ccc(C)cc2)c1C,> 47
2,CC1CCCCC1NC(=O)NC(=O)COC(=O)c1nccnc1N (stereo not given),> 50.3
3,CC1CN(C(=O)c2ccc(NS(=O)(=O)c3ccc(F)cc3)cc2)CC(C)O1 (stereo not given),> 58.9
4,CC1CCN(CC(=O)NC2CCCCC2)CC1.Cl,37.4
5,N#CC(C#N)=Cc1ccc(N2CCOCC2)cc1,4.4
6,CCOc1ccc2oc(C(=O)Nc3ccc4c(c3)OCO4)c(C)c2c1,5.7
7,O=C1NC2=C(C(=O)CCC2)C(c2ccccc2Cl)N1 (stereo not given),39.1
8,FC(F)Oc1ccc(NC(=S)NC2CCCCCCC2)cc1,0.7
9,c1csc(-c2nc(N3CCOCC3)c3ccccc3n2)c1,2
10,CCCC(=O)Oc1ccc(-c2nccc(C(OC)OC)n2)cc1,46.1
11,CC(C)n1c(Oc2ccc(F)cc2)nc2c1c(=O)n(C)c(=O)n2C,8.1
12,CC(=O)c1ccc(NC(=O)C2CC(=O)N(C(C)C)C2)cc1 (stereo not given),> 43.3
13,Cc1c[n+](CC(=O)c2ccccc2)cs1.[Br-],44.3
14,O=c1c2cc(Cl)cc(Cl)c2nc2n1CCC2,35
15,O=C1CCc2cc(S(=O)(=O)Nc3ccccc3Cl)ccc2N1,> 50.5
16,N/C(=N\OC(=O)c1cccc2ccccc12)c1ccccn1,38.2
17,CCCCn1c(=O)[nH]c2nc3cc(NC(C)=O)ccc3nc2c1=O,2.3
18,Cc1ccnc(SCC(=O)c2cccs2)n1,> 37.5
19,COc1cc(C=O)ccc1OC(=O)N1CCOCC1,> 39.8
20,CCc1ccccc1S(=O)(=O)c1c(C)cc(C)nc1Cl,24.3
21,O=C(COc1ccccc1)NCC1COc2ccccc2O1 (stereo not given),44.8
22,CN1C(=O)Cc2cc(S(=O)(=O)NCCc3ccccc3)ccc21,39.1
23,CCc1nc2ccccc2c(C(=O)OCC(=O)NC2CC2)c1C,> 46.9
24,COc1ccc2oc(=N)c(C(=O)NCc3ccccc3)cc2c1,3.1

row,SMILES,solubility kinetic [µg/mL]
1,CCC(C)c1ccc(NC(=O)COC(=O)CCNS(=O)(=O)c2cccs2)cc1 (stereo not given),21.2
2,Cc1nc([N+](=O)[O-])c(Br)n1Cc1ccccc1,> 44.4
3,O=C(NCc1cccnc1)C12CC3CC(CC(C3)C1)C2,38.7
4,CCC1CN(C(=O)NCc2ccccc2)c2cc(C)ccc2O1 (stereo not given),3.8
5,Cc1ccc(S(=O)(=O)N2CCC(C)CC2)cc1,28.6
6,COc1ccc(NC(=O)COC(=O)CCNC(=O)c2ccco2)cc1Cl,> 57.1
7,Cc1c(C(=O)O)cccc1-c1ccc(/C=C2\SC(=O)NC2=O)o1,> 49.4
8,COc1ccc(NC(=O)CCNC(=O)c2ccco2)c(OC)c1,> 47.7
9,N#Cc1ncccc1CCc1cccc(Cl)c1,22.4
10,O=C(Nc1ccccc1)OCCOc1ccccc1Br,< 0.7
11,CC(C)NCC(=O)Nc1c2c(nc3ccccc13)CCC2.O=C(O)C(=O)O,> 56
12,CC(=O)C1=C(O)C(=O)N(Cc2ccco2)C1c1ccccc1F (stereo not given),> 47.3
13,O=C(Cc1ccccc1F)Nc1nc2ccccc2[nH]1,2.7
14,O=C(c1c(F)cccc1F)N(Cc1ccccc1)Cc1ccccc1,8.4
15,Cc1cccc(OCc2cc(-c3ccccc3)no2)c1C,< 0.6
16,O=C(/C=C/c1ccco1)N(Cc1ccc(F)cc1)C1CCS(=O)(=O)C1 (stereo not given),> 54.5
17,CC1CCCN(S(=O)(=O)c2ccc3oc(=O)ccc3c2)C1 (stereo not given),20
18,OCC1(CCOc2ccccc2)CCN(Cc2ccncc2)CC1,39
19,S=C(Nc1ccc2c(c1)OCO2)Nc1ccccc1Cl,32.5
20,Cn1c(N)cc(-c2ccc(F)cc2)c(C#N)c1=O,> 36.5
21,Cc1cccc2cc(C#N)c(N3CCOCC3)nc12,1.7
22,CCOC(=O)c1cn(CC#N)c2cc(F)c(F)cc2c1=O,> 43.8
23,O=c1[nH]c(Cc2cccc(C(F)(F)F)c2)nc2ccccc12,< 0.3
24,CCOc1ccccc1NC(=O)COC(=O)/C=C/c1cccs1,3.1

row,SMILES,solubility kinetic [µg/mL]
1,Cc1cc(C)c(OCCn2ccnc2)c(C)c1,31.5
2,Cc1cc(NC(=O)COC(=O)c2ccccc2[N+](=O)[O-])no1,21.3
3,Cc1ccccc1NC(=O)Cc1nnc(N)s1,> 37.2
4,CC(Sc1nc2ccc(C(=O)c3ccccc3)cc2[nH]1)C(=O)O (stereo not given),> 49
5,COc1ccccc1OCc1ccc(C(=O)N2CCCCC2)o1,> 47.3
6,CCOCCOc1cccc(C(=O)NC(c2ccccc2)C(C)C)c1 (stereo not given),6.2
7,Cc1ccc(CNc2nc(C)c(C(=O)N(C)C)s2)cc1,> 43.4
8,O=C(CN1CCN(c2ccccn2)CC1)Nc1ccc(F)c(F)c1,> 49.9
9,Oc1cccc(C=Nc2cccc3ccccc23)c1O,18.3
10,Cc1nc([N+](=O)[O-])cn1CC(=O)Nc1ccc(Cl)cc1,6.1
11,COc1ccccc1C(=O)NCCCNC(=O)c1cnccn1,36.6
12,Cc1cc(C)n(CC(=O)NC2CCCCC2C)c(=O)c1C#N (stereo not given),16.7
13,CCCNC(=O)Cc1c(C)oc2ccccc12,> 34.7
14,CC(C)(C)C(=O)O/N=C(\N)COc1cccc(Cl)c1,25.4
15,CCCCCC(=O)O/N=C(\C)c1ccn(S(=O)(=O)c2ccccc2)c1,1.3
16,O=C(/C=C/c1ccco1)N(Cc1ccc(Cl)cc1)C1CCS(=O)(=O)C1 (stereo not given),46.2
17,Cc1c(Cl)cccc1NC(=O)c1cc(-c2ccco2)on1,0.8
18,Cc1cc(=O)oc(C)c1C(=O)Nc1ccc(F)cc1,> 39.2
19,CCOc1ccc(-c2n[nH]c(=S)o2)cc1,> 33.3
20,C=CCNC(=S)N/N=C(\C)c1cccc(NC(C)=O)c1,> 43.6
21,CC1CCC2(CC1)NC(=O)N(CC(=O)N1c3ccccc3CC1C)C2=O (stereo not given),5.2
22,COc1ccc(NC(=O)CCSCCc2ccccn2)cc1OC,49.1
23,CCCCn1c(=O)[nH]c2c(oc3ccccc32)c1=O,1.7
24,Cc1cc(NC(=O)CSc2nc3ccccc3n2CCC#N)no1,7.7

row,SMILES,solubility kinetic [µg/mL]
1,O=C(NNC1=NS(=O)(=O)c2ccccc21)c1ccccc1,> 45.2
2,CC1CCN(S(=O)(=O)c2cccc(S(=O)(=O)N3CCCC3)c2)CC1,28.1
3,COc1ccc(OC)c(NC(=S)N2c3ccccc3CC2C)c1 (stereo not given),7.6
4,Cc1cc(SCC(=O)N2CCCC2=O)nc2ccccc12,11.2
5,COc1ccc(CN2CN(C3CCCC3)CSC2=S)cc1,0.8
6,O=S(=O)(Cc1noc(-c2ccc(OC(F)(F)F)cc2)n1)c1ccc(F)cc1,< 0.4
7,Oc1ccc(-c2cn3ccccc3n2)cc1O,24
8,Cc1nn(C)c(C)c1NC(=O)CCl.Cl,> 35.7
9,CCC(OC(=O)c1nsc(Cl)c1Cl)C(=O)NCC1CCCO1 (stereo not given),52.8
10,Cc1ccc(C(=O)NC(=S)NCC2CCCO2)cc1[N+](=O)[O-] (stereo not given),> 48.5
11,CC1CCN(C(=O)NC(=O)c2ccc(Cl)cc2)CC1,> 42.1
12,CCCOc1ccc2ccccc2c1/C=C1\SC(=O)NC1=O,> 47
13,CC(OC(=O)c1cc2sccc2n1C)C(=O)NC(C)(C)C (stereo not given),> 46.3
14,CC1(C)Cc2cccc(OCC(=O)NCc3cccs3)c2O1,> 47.6
15,CCCn1c(SCC(=O)NCCCN2CCCC2=O)nc2ccccc2c1=O,> 60.4
16,Cc1cc(NC(=O)c2ccc(-c3ccccc3[N+](=O)[O-])o2)no1,6.7
17,O=C(COC(=O)c1ccc[n+]([O-])c1)Nc1ccccc1OC(F)F,> 50.7
18,CCOC(=O)CN1C(=O)NC2(CCCc3ccccc32)C1=O (stereo not given),> 45.3
19,Cc1ccc(C(=O)N2C(=O)C(c3ccccc3)Oc3ccccc32)cc1 (stereo not given),< 0.7
20,Cc1cc(C)cc(NC(=S)N2CCN(c3ccccn3)CC2)c1,9.2
21,O=C(c1cc(=O)[nH]c2ccccc12)N1CCN(c2ccccc2)CC1,> 50
22,CC(C)(C)c1csc(NC(=O)c2ccccc2O)n1,9.3
23,O=C(CSc1nnc(Nc2ccccc2)s1)NC1CCS(=O)(=O)C1 (stereo not given),> 57.7
24,CN1CCN(S(=O)(=O)c2ccc(N(C)Cc3c(F)cccc3Cl)nc2)CC1,5.4
